Patent US8865705B2, “Benzimidazole respiratory syncytial virus inhibitors” (Janssen R&D Ireland, priority 2010, dated 2014)
Like-named read-outs stand apart in the source and are kept apart here.

Key:
HeLa cells = experiment: Cytotoxicity in HeLa cells by ATP content (ATPlite kit); type: cell-based
Protocol: (§1) Black 96-well clear-bottom microtiter plates (Corning, Amsterdam, The Netherlands) were filled in duplicate using a customized robot system with serial 4-fold dilutions of compound in a final volume of 50 μl culture medium [RPMI medium without phenol red, 10% FBS, 0.04% gentamycin (50 mg/mL) and 0.5% DMSO]. Then, 100 μl of a HeLa cell suspension (5×10^4 cells/mL) in culture medium was added to each well followed by the addition of 50 μl rgRSV224 (MOI=0.02) virus in culture medium using a multidrop dispenser (Thermo Scientific, Erembodegem, Belgium). rgRSV224 virus is an engineered virus that includes an additional GFP gene (Hallak et al, 2000) and was in-licensed from the NIH (Bethesda, Md., USA). Medium, virus- and mock-infected controls were included in each test. Cells were incubated at 37° C. in a 5% CO2 atmosphere. Three days post-virus exposure, viral replication was quantified by measuring GFP expression in the cells by a MSM laser microscope (Tibotec, Beerse, Belgium). The EC50 was defined as the 50% inhibitory concentration for GFP expression. In parallel, compounds were incubated for three days in a set of white 96-well microtitier plates (Corning) and the cytotoxicity of compounds in HeLa cells was determined by measuring the ATP content of the cells using the ATPlite kit (PerkinElmer, Zaventem, Belgium) according to the manufacturer's instructions. The CC50 was defined as the 50% concentration for cytotoxicity.

rgRSV224 virus = experiment: microbe, parasite or virus in culture; type: cell-based, respiratory syncytial virus (RSV); details: read-out: WT activity EC50
Protocol: as §1, with “The EC50 was defined as the 50% inhibitory concentration for GFP expression.” left out, “instructions.” for “instructions. The CC50 was defined as the 50% concentration for cytotoxicity.”

[1] = Cytotoxicity in HeLa cells by ATP content (ATPlite kit); type: cell-based; details: human; Table 1; HeLa cells, three days, ATP content; read-out: Tox CC50
Protocol: as §1

[2] = Table 1, HeLa cells, three days, ATP content, read-out: Tox CC50
[3] = Table 1, rgRSV224 in HeLa cells, GFP expression three days post-virus exposure

SMILES | CC50 (HeLa cells; [2]) [nM] | EC50 (rgRSV224 virus; [3]) [nM] | CC50 at 3 days [1] [nM] | EC50 (rgRSV224 virus; human respiratory syncytial virus, HeLa, 72 h) [nM] | CC50 (HeLa cells) [nM]
O=c1n(Cc2nc3cc(Br)ccc3n2CCCCF)c2cnccc2n1C1CC1 [P1] | > 9840 | 0.033 | – | – | –
CS(=O)(=O)CCCn1c(Cn2c(=O)n(C3CC3)c3ccncc32)nc2cc(Br)ccc21 [P2, 3-({5-Bromo-1-[3-(methylsulfonyl)propyl]-1H-benzimidazol-2-yl}methyl)-1-cyclopropyl-1,3-dihydro-2H-imidazo[4,5-c]pyridin-2-one] | – | – | > 9840 | 0.034 | –
CS(=O)(=O)CCCn1c(Cn2c(=O)n(C3CC3)c3ccc(F)cc32)nc2cc(Br)ccc21 [P3] | – | 0.47 | – | – | > 9840
CS(=O)(=O)NCCCCn1c(Cn2c(=O)n(C3CC3)c3ccncc32)nc2cc(Br)ccc21 [P5] | – | < 0.15 | – | – | > 101000
CS(=O)(=O)CCCn1c(Cn2c(=O)n(C3CC3)c3ccncc32)nc2cc(Cl)ccc21 [P6] | – | < 0.15 | – | – | > 9840
CS(=O)(=O)CCCn1c(Cn2c(=O)n(C3CC3)c3ccccc32)nc2cc(Br)ccc21 [P7] | – | < 0.15 | – | – | > 9840
O=c1n(Cc2nc3cc(Br)ccc3n2CCCCCl)c2cnccc2n1C1CC1 [P8] | > 9840 | < 0.205 | – | – | –
CS(=O)(=O)NCCCn1c(Cn2c(=O)n(C3CC3)c3ccncc32)nc2cc(Br)ccc21 [P9] | – | 0.21 | – | – | > 101000
CS(=O)(=O)CCCn1c(Cn2c(=O)n(C3CC3)c3ccc(F)cc32)nc2cc(Cl)ccc21 [P10] | – | 0.23 | – | – | > 9840
O=c1n(Cc2nc3cc(Cl)ccc3n2CCCCO)c2cc(F)ccc2n1C1CC1 [P11] | – | 0.253 | – | – | > 9840
O=c1n(Cc2nc3cc(Cl)ccc3n2CCCCO)c2ccccc2n1C1CC1 [P12] | – | 0.307 | – | – | > 9840
O=c1n(Cc2nc3cc(Cl)ccc3n2CCCCO)c2cnccc2n1C1CC1 [P13] | – | 0.454 | – | – | > 9840
O=c1n(Cc2nc3cc(Br)ccc3n2CCCCO)c2cnccc2n1C1CC1 [P14] | – | 0.523 | – | – | > 98400
CC(C)CCn1c(Cn2c(=O)n(C3CC3)c3ccncc32)nc2cc(Cl)ccc21 [P15] | – | < 0.62 | – | – | > 98400
O=c1n(Cc2nc3cc(Br)ccc3n2CCCCO)c2cc(F)ccc2n1C1CC1 [P16] | – | 0.744 | – | – | > 9840
CC(C)CCn1c(Cn2c(=O)n(C3CC3)c3ccncc32)nc2cc(Br)ccc21 [P17] | – | 0.808 | – | – | > 49200
CC(=O)OCCCCn1c(Cn2c(=O)n(C3CC3)c3ccncc32)nc2cc(Br)ccc21 [P18] | > 101000 | 1.07 | – | – | –
CC(C)(C)C(=O)OCCCCn1c(Cn2c(=O)n(C3CC3)c3ccccc32)nc2cc(Cl)ccc21 [P19] | – | 2.59 | – | – | > 9840
CC(C)(C)C(=O)OCCCCn1c(Cn2c(=O)n(C3CC3)c3ccc(F)cc32)nc2cc(Cl)ccc21 [P20] | – | 4.09 | – | – | > 9840
CN(C)CCCn1c(Cn2c(=O)n(C3CC3)c3ccncc32)nc2cc(Br)ccc21 [P21] | – | 4.12 | – | – | > 98400
CC(=O)OCCCCn1c(Cn2c(=O)n(C3CC3)c3ccc(F)cc32)nc2cc(Br)ccc21 [P22] | > 9840 | < 0.81 | – | – | –
O=c1n(Cc2nc3cc(Br)ccc3n2CCCCF)c2cc(F)ccc2n1C1CC1 [P23] | > 9840 | < 1.6 | – | – | –
CS(=O)(=O)CCCn1c(Cn2c(=O)n(C3CC3)c3ccccc32)nc2cc(Cl)ccc21 [P24] | – | < 0.15 | – | – | > 9840
O=c1n(Cc2nc3cc(Cl)ccc3n2CCCCF)c2ccccc2n1C1CC1 [P25] | > 9840 | < 0.15 | – | – | –
N#CCCCn1c(Cn2c(=O)n(C3CC3)c3ccncc32)nc2cc(Cl)ccc21 [P26] | > 9840 | < 0.15 | – | – | –
N#CCCCn1c(Cn2c(=O)n(C3CC3)c3ccncc32)nc2cc(Br)ccc21 [P27] | > 9840 | < 0.15 | – | – | –
